Holding throughout (experiment): NCI tumour cell line growth inhibition, 48 h
For experiment [1], the system named is HT29 colon.
In experiment [2] the test system is SF-268 CNS.
In experiment [3] the test system is EKVX NSCLC.
For experiment [4], the system named is NCI-H23 lung.
Experiment [5] deals with A498 renal.
The test system of experiment [6] is KM12 colon.
The test system of experiment [7] is ACHN renal.
In experiment [8] the test system is PC-3 prostate.
In experiment [9] the test system is HS 578T breast.
Experiment [10] deals with MDA-N.
Experiment [11] concerns MCF7 breast.

17 molecules from PubChem BioAssay (NCI) can be followed below.

The structures appear in SMILES notation. Several values for one entry are separate records, joined by “and”; a condition that tells them apart may be missing. Equal entries are not always repeated.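 Results reflect a 48-hour exposure of cells in 96-well plates to compound at five concentrations. GI50: concentration for 50% inhibition of growth. TGI denotes the concentration required for complete inhibition of growth.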 A value given as a limit tells only on which side of the number the result lay.

As for `CCOc1ccccc1N=Nc1ccc2oc(=O)c(C(C)=O)cc2c1`, the TGI in [1], in [2], in experiment [3], in experiment [4], in [5] and in experiment [6] was above 100 µM each time.

Consider `CC1=CC2C(C=C1)S(=O)(=O)N1CC21c1ccccc1` (configuration not stated), for which the TGI in experiment [1], in [2], in experiment [4], in [5], in experiment [7] and in experiment [6] was above 100 µM throughout.

Take `CCOC(=O)c1c[nH]c(C(=O)OCC)c1-c1cccn1-c1ccccc1`: the TGI in [1] is 89.9 µM; in experiment [8], 82.5 µM; in experiment [2], above 100 µM; in experiment [3], above 100 µM; in experiment [4] it was above 100 µM; in experiment [5], 86.2 µM. Further, the TGI in experiment [9] was 59 µM; in [7] it was above 100 µM; in experiment [10], 99.2 µM; in experiment [6], 24.6 µM.

Turning to `CSc1ncnc2c1cnn2Cc1cnnn1COCC(O)CO` (configuration not stated), the TGI in experiment [1] is above 100 µM; in experiment [8], above 100 µM; in experiment [2], 46.5 µM; in [3], above 100 µM; in experiment [4], above 100 µM; in experiment [5] it was above 100 µM. Besides, the TGI in [11], in experiment [7], in experiment [10] and in [6] was above 100 µM throughout.

Turning to `O=C1NC2NC3NC(=O)NC3NC2N1` (configuration not stated), the TGI in experiment [1], in [8], in experiment [3], in experiment [4], in experiment [5] and in [11] was above 100 µM throughout. Further, the TGI in experiment [7], in [10] and in experiment [6] was above 100 µM each time.

On to `CC1=C(c2nc3ccccc3s2)C(=O)OC1(C)C`, for which the TGI in experiment [1], in experiment [2], in experiment [3], in experiment [4], in experiment [7] and in experiment [6] was above 100 µM each time.

Consider `CCOC1=C2N=C(C(CC)c3ccccc3F)N=C2C(=O)c2ccccc21` (configuration not stated), for which the TGI in experiment [1], in [2], in experiment [3], in experiment [4], in experiment [7] and in [6] was above 100 µM throughout.

`Cc1cc2ncn(-c3nc4ccccc4nc3C(C#N)S(C)(=O)=O)c2cc1C` (configuration not stated): the TGI in experiment [2], in experiment [3], in experiment [4], in experiment [5], in experiment [7] and in [6] was above 100 µM each time.

With `CN(C)c1ccc(/C=C/C(=O)c2ccc(O)cc2)cc1`, the TGI is 29.9 µM in experiment [1]; 63.2 µM in experiment [8]; above 100 µM in [2]; above 100 µM in experiment [3]; above 100 µM in [4]; above 65.7 µM in [5]. In addition, the TGI in experiment [11] is above 100 µM; in experiment [9], above 69.7 µM; in experiment [7] it was 61.3 µM; in experiment [6], above 100 µM.

Consider `N#CC(NNC(=O)Cc1ccccc1)c1cccc(O)c1` (configuration not stated), for which the TGI in [1], in experiment [2], in experiment [4], in [7] and in experiment [6] was above 100 µM in each case.

`Nc1nc(NNc2cccc(F)c2)cc(=O)[nH]1`: the TGI in experiment [1] is 54.6 µM; in experiment [8] it was 59.7 µM; in experiment [3] it was above 100 µM; in experiment [4], above 100 µM; in experiment [5], above 100 µM; in [11], 89.1 µM. Further, the TGI was above 100 µM in [9], above 100 µM in experiment [7] and 56.8 µM in [6].

On to `COc1ccc(/C=c2\c(=O)[nH]c3nc4ccccc4c(=O)n23)cc1`, for which the TGI in experiment [1], in [8], in experiment [2], in experiment [3], in experiment [4] and in [11] was above 100 µM in each case. For the same molecule, the TGI in experiment [9], in experiment [7] and in experiment [6] was above 100 µM throughout.

For `COc1ccc2[nH]c3c(c2c1)[C@H](c1ccccc1)C[C@@H]1C(=O)N(c2ccccc2)C(=O)[C@H]31`, the TGI was above 100 µM in experiment [2]; above 100 µM in experiment [3]; 49.6 µM in [5]; 42.9 µM in [7]; 43.6 µM in experiment [6].

For `CCOC(=O)c1c2ccc(/C=C/c3ccccn3)ccc-2c(C(=O)OCC)c1N`, the TGI was above 100 µM in experiment [1]; 0.966 µM in experiment [2]; above 100 µM in experiment [3]; above 100 µM in experiment [4]; above 100 µM in [5]; above 100 µM in experiment [7]. In experiment [6], this molecule came in with a TGI above 100 µM.

Turning to `O=C1[C@@H]2C(c3ccc(Br)cc3)=NO[C@@H]2C(=O)N1c1ccc(Cc2ccc(N3C(=O)[C@H]4C(c5ccc(Br)cc5)=NO[C@H]4C3=O)cc2)cc1`, the GI50 in experiment [1] is above 40 µM. Besides, the TGI was above 40 µM in [1]; above 3.48 µM in experiment [2]; above 3.48 µM in experiment [3]; above 3.48 µM in [4]; > 3.48 µM and 16.2 µM in experiment [5]; above 40 µM in [7]. For the same molecule, the TGI in experiment [6] is above 3.48 µM.

Consider `O=Cc1c[nH]c2c(=O)[nH]cnc12`, for which the TGI in experiment [1], in experiment [2], in experiment [3], in experiment [4], in experiment [7] and in experiment [6] was above 100 µM each time.

In the case of `CC(C)(C)OC(=O)NC1CCCC1C(=O)C1=CCCC1` (configuration not stated), the TGI in experiment [1], in experiment [8], in experiment [2], in experiment [4], in [5] and in [9] was above 100 µM each time. Also, the TGI in [7], in [10] and in [6] was above 100 µM throughout.
